Values of other authors as cited in patent US20140018251A1, “Methods for Predicting Response to Anti-Cancer Therapy in Cancer Patients” (Stichting Het Nederlands Kanker Instituut, priority 2010, published 2014).

Tested on: mouse mammary tumors lacking BRCA1

N.N.[Cl][Pt][Cl] [cisplatin]
sensitivity of tumors: extremely sensitive
